This is an account of results in US20220267288A1, “CARDIAC THERAPEUTIC” (priority 2019, published 2022).

The assay deals with H9c2 cells. Description: Mitochondrial membrane potential (Δψm) dissipation, TMRM dye. The assay is classed as cell-based. Particulars: Rattus norvegicus; H9c2 cells, TMRM dye. The method, then: H9c2 cell line was purchased from American Tissue Type Collection (ATCC) (Manassas, Va.). The cells were cultured in low-glucose DMEM growth media (Cat No: 31600, Thermo Fisher Scientific, Waltham, Mass.) supplemented with 1.5 g/L sodium bicarbonate, 25 mM HEPES, 10% fetal bovine serum (FBS) (GE Healthcare, Singapore), 100 units/mL penicillin, 100 μg/mL streptomycin and 250 ng/mL amphotericin B in 75-cm^2 tissue-culture flasks at 37° C. in a humidified atmosphere of 5% CO2. Cells were fed every 2-3 days and sub-cultured once 70-80% confluency was achieved to prevent the loss of differentiation potential. For differentiation, H9c2 cells were seeded at a density of 100,000 cells/well in 12-well plates. The cells were maintained for 1 day in low-glucose high-serum growth media to allow for cell attachment. Subsequently, cells were differentiated using 1 μM ATRA.
Dissipation of Δψm by each test compound was measured using mitochondrial permeable dye, tetramethylrhodamine methyl ester perchlorate (TMRM) (Thermo Fisher Scientific, Waltham, Mass.). […] The media was aspirated, the cells were washed with PBS and fluorescence was measured at 557 nm excitation and 570 nm emission wavelengths. […] The media was aspirated and then the cells were treated with dronedarone and the dissipation of Δψm by AADs was measured as described.

Regarding `CCCCc1oc2ccc(NS(C)(=O)=O)cc2c1C(=O)c1ccc(OCCCN(CCCC)CCCC)cc1.Cl` [Dronedarone], the IC50 came to 500 nM.
